Data taken from PubChem BioAssay AID179 (DTP/NCI, 2004).
Activity calls are given as the source filed them.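 How the source made its calls: active means compounds giving half or more protection of infected cells from virus-caused growth loss, again on retest; inactive means the rest.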

Test system: CEM cells HIV-1 protection, formazan growth assay
Test: NCI AIDS Antiviral Assay
Conditions: for IC50: measured here: growth of uninfected CEM cells
How it was run: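 Steps: treat uninfected and HIV-1-infected human CEM cells at five drug levels; quantify growth by soluble formazan; retest any compound reaching 50% protection; classify actives from the retest.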

Compound	EC50 [µM]	IC50 [µM]	outcome
CS(=O)(=O)CS(C)(=O)=O	> 200	> 200	
CN1CC[C@@H](O)[C@@H](CNC23CC4CC(CC(C4)C2)C3)C1			inactive
CCOC(=O)NC(=O)c1cn(CCN2CCN(C(=O)CNC(=O)CNC(=O)Cn3cc(C(=O)NC(=O)OCC)c(=O)[nH]c3=O)CC2)c(=O)[nH]c1=O			inactive
COc1ccc(Cc2c(N)[nH]c(=O)[nH]c2=O)cc1	> 200	> 200	
CSc1n[nH]c(N)c1C(=O)Nc1ccc(Cl)cc1	0.457	1.86	
Nc1nc2c(c(-c3ccc(F)cc3)n1)COC/C2=C\c1ccc(F)cc1	> 200	158	
Oc1c(Cl)ccc2cccnc12	> 20	0.676	
COc1cc(/C=C2\C(=O)N(c3ccccc3)C(c3ccccc3)S2(=O)=O)cc(OC)c1OC (stereo not drawn)	> 20	2.88	
O=CN/C=C/c1ccccc1	> 200	> 200	
CN1C(=O)CN=C(c2ccc[nH]2)c2cc(Cl)ccc21 (tested in a mixture with another compound)	11.2	79.4	
Cc1cc(O)c2c(O)c3c(O)cc(=O)c(-c4c(=O)cc(O)c5c(O)c6c(O)cc(C)oc6cc45)c3cc2o1			inactive
O=C(c1ccncc1)n1nc(-c2ccccc2)c(N=Nc2ccccc2[N+](=O)[O-])c1-c1ccccc1	> 39.8	> 39.8	
O=C(Nc1ccccc1)OCC1OCOC(COC(=O)Nc2ccccc2)C1OC(=O)Nc1ccccc1 (stereo not drawn)	> 200	4.47	
CC(C)(C)CC(C)(C)c1cc2c(O)c(c1)Cc1cc(C(C)(C)CC(C)(C)C)cc(c1O)Cc1cc(C(C)(C)CC(C)(C)C)cc(c1O)Cc1cc(C(C)(C)CC(C)(C)C)cc(c1O)Cc1cc(C(C)(C)CC(C)(C)C)cc(c1O)Cc1cc(C(C)(C)CC(C)(C)C)cc(c1O)Cc1cc(C(C)(C)CC(C)(C)C)cc(c1O)Cc1cc(C(C)(C)CC(C)(C)C)cc(c1O)C2	> 2.04	> 2.04	
O=[N+]([O-])O.[Ga]	> 100	> 100	
N=C(N)/N=C(/C=C/c1ccccc1)CC1OC(=O)c2ccccc21 (stereo not drawn)	> 42.7	> 42.7	
CCOC(=O)c1sc2nc(SC)nc3c2c1N=CN3c1ccccc1Cl	> 100	> 100	
COCS(=O)(=O)c1ccccc1	> 708	> 708	
C[C@]12CC[C@@H]3c4ccc(OC(=O)N(CCCl)CCCl)cc4CC[C@H]3[C@@H]1CC[C@@H]2O	> 200	1.7	
Cc1nc(C(=O)O)c2ccccc2n1			inactive
COc1cccc(/C=N/NC(=O)c2ccccc2[O-])c1[O-].[OH3+].[Pd+2]	> 200	1.26	

Compound	EC50 [µM]	IC50 [µM]	outcome
COc1ccc2c(c1)OC[C@@H]1c3cc(O)c4c(OC)cccc4c3O[C@H]21	> 100	44.7	
C=C1C(OC(=O)C(O)C(c2ccccc2)N(C)C)C[C@H](OC(C)=O)[C@]2(C)C1C[C@@H]1CC(OC(C)=O)C(C)=C([C@@H](OC(C)=O)C2OC(C)=O)C1(C)C (stereo partly drawn)			inactive
CCCCCCCCCCCCCC(=O)OCC(C[As](=O)(O)O)OC(=O)CCCCCCCCCCCCC (stereo not drawn)	> 11.5	> 11.5	
Cc1ccc(-c2n[nH]c(=O)[nH]2)cc1[N+](=O)[O-]	> 200	> 200	
COc1ccc(C(=O)C(c2ccc(OC)cc2)C2(O)C(=O)Nc3c(Cl)cc(Cl)cc32)cc1 (stereo not drawn)	> 39.8	> 39.8	
COc1cc2c3c(c1)/C(=N\N)CCN3CCC2	> 200	115	
CC1(C)OC2COC(=O)CC2O1 (stereo not drawn)	> 200	> 200	
OC(c1ccsc1)c1cc2ccccc2s1 (stereo not drawn)	> 200	107	
CCSc1c2ccccc2nc2c(OC)ccc(OC)c12			inactive
O=C(NCCCCCCNC(=O)n1cc(F)c(=O)[nH]c1=O)NCCCOCCOCCOCCOCCOCCOCCOCCOCCOCCOCCOCCOCCOCCOCCOCCOCCOCCOCCOCCOCCOCCCNC(=O)C(O)C(O)C(OC1OC(CO)C(O)C(O)C1O)C(O)CO (stereo not drawn)			inactive
O=C(NN1C(=O)C(Cl)C1c1ccc(O)cc1)c1ccccc1O (stereo not drawn)	> 21.9	10.2	
CCCC/C=C(/CCCNCCc1ccccc1)[Si](C)(C)C	> 81.3	> 81.3	
COc1ccc(C2NC(=O)N3C(c4ccc(OC)c(OC)c4)NC(=O)N23)cc1OC (stereo not drawn)	> 200	> 200	
O=C1CC(c2ccccc2)n2cccc21 (stereo not drawn)			inactive
NC(S(=O)(=O)O)S(=O)(=O)O	> 200	91.2	
COc1ccc(NC(=O)c2c(NC(=O)CN3CCOCC3)c(C#N)c3n2CCC3)cc1	> 100	> 100	
S=c1nc(/C=C/c2ccc(Cl)c(Cl)c2)[nH][nH]1	> 36.3	> 36.3	
C[CH2][Sn]([CH2]C)([O]C(=O)c1cccc(F)c1)[O][Sn]([CH2]C)([CH2]C)[O]C(=O)c1cccc(F)c1	> 5.89	> 5.89	
COC1(C)C(=O)N2C1N(C(C)=O)CC2(C)C (stereo not drawn)	> 501	> 501	
O=C(ON=C1c2ccccc2C(Br)C(Br)c2ccccc21)c1cc([N+](=O)[O-])cc([N+](=O)[O-])c1 (stereo not drawn)	> 200	0.851	
Nc1ccccc1Sc1ccc(Cl)cc1			inactive

Compound	EC50 [µM]	IC50 [µM]	outcome
c1ccc(-c2cc(-c3ccncc3)cc(-c3ccncc3)n2)cc1	> 200	> 200	
CCN(Cc1cccc(S(=O)(=O)[O-])c1)c1ccc(C(=C2C=CC(=[N+](CC)Cc3cccc(S(=O)(=O)O)c3)C=C2)c2ccccc2S(=O)(=O)O)cc1			inactive
COC(=O)CC(C(C(C)=O)C(=O)OCc1ccccc1)N1C(=O)OC(c2ccccc2)C1c1ccccc1 (stereo not drawn)	> 83.2	> 83.2	
COc1cc(N(CCC#N)CCC#N)ccc1/C(N=Nc1ccc(Cl)cc1)=N/NC(=O)c1cc(Br)ccc1O	> 100	17.4	
c1ccc(OP2(Oc3ccccc3)=NP(Oc3ccccc3)(Oc3ccccc3)=NP(Oc3ccccc3)(Oc3ccccc3)=NP(Oc3ccccc3)(Oc3ccccc3)=N2)cc1	> 100	> 100	
O=c1oc2ccccc2c(O)c1C(c1ccc(Cl)cc1)c1c(O)c2ccccc2oc1=O	> 200	26.3	
CN1C(OCc2ccccc2)c2c(ccc3c2OCO3)C2C=Cc3cc4c(cc3C21)OCO4 (stereo not drawn)	> 11.7	0.676	
CC(C)(C)c1cc(/C=C/C(=O)CC(=O)/C=C/c2cc(C(C)(C)C)c(O)c(C(C)(C)C)c2)cc(C(C)(C)C)c1O	> 200	> 200	
N[C@H](C(=O)O)[C@@H](Cl)CC(=O)O			inactive
Oc1[nH]c2ccccc2c1N=NC(=S)NCc1ccccn1	> 2	0.0295	
O=C1N[C@@H](Cc2ccccc2)C(=O)N2CSC[C@H]12	> 631	> 631	
CC(=O)OCC1OC(n2c(-c3ccccc3)c(N=Nc3ccc(C)cc3)c(C)c(C#N)c2=S)C(OC(C)=O)C(OC(C)=O)C1OC(C)=O (stereo not drawn)	195	> 200	
CCCCCCCCCCCCCCCC(=O)OCC1OC(OC)C(NC(=O)N(CCCl)N=O)C(O)C1O (stereo not drawn)	> 33.1	6.92	
O=C(CSc1nnc(-c2ccc(N=Cc3ccc(Cl)cc3)cc2)o1)Nc1cccc(Cl)c1	> 74.1	> 74.1	
CC1C[P+](c2ccccc2)(c2ccccc2)Cc2ccccc21 (stereo not drawn)	> 708	2.57	
O=C(Nc1ccccc1)c1c(O)[nH]c(=O)[nH]c1=O	> 75.9	38.9	
O=C(Cc1ccccc1)N/N=C(/CCN1CCCC1)CC(c1ccccc1)c1c(O)c2ccccc2oc1=O (stereo not drawn)			inactive
COc1ccc(C(c2c(O)c3ccccc3oc2=O)c2c(O)c3ccccc3oc2=O)cc1	> 200	87.1	
CN(C)C(c1ccccc1)C(O)c1ccccc1 (stereo not drawn)			inactive
Cc1ccnc(NC(=O)Nc2ccc(F)c([N+](=O)[O-])c2)c1	> 200	> 200	
CCC[CH2][Sn]1([CH2]CCC)[S]CC[N]1S(=O)(=O)c1ccc(C)cc1	> 200	0.0776	

Compound	EC50 [µM]	IC50 [µM]	outcome
COc1cccc(/C=C2\Cc3ccccc3C2=O)c1	> 4.17	> 4.17	
Cn1c2c(c3ccccc31)CC(=O)N1CCCC(C1)CC21OCCO1 (stereo not drawn)	> 200	> 200	
CC1CCCC2(O1)OC1CC(=O)OC1C1=C2C(=O)c2ccccc2C1=O (stereo not drawn)	> 87.1	0.417	
O=C(c1ccco1)N(C(=S)OCc1ccccn1)c1ccccc1	> 200	105	
CSc1nc(Cl)c2c(n1)Sc1nc3cc4c(cc3n1C2O)OCO4 (stereo not drawn)	> 100	0.525	
CCc1cccc(C)c1NC(=S)NC(=O)c1ccccc1C(=O)NC(=S)Nc1c(C)cccc1CC	> 69.2	> 69.2	
NC(=O)c1nnn(Cc2cc(Cl)c(C(=O)c3ccc(Cl)cc3)c(Cl)c2)c1N	> 200		
NC(=O)NNc1nc2ccccc2c(=O)n1NC(=O)C(=O)Nc1ccc(Cl)cc1Cl	> 79.4	> 79.4	
COc1cccc(C=O)c1[O-].COc1cccc(C=O)c1[O-].[Co+2]	> 186	28.2	
c1ccc2c(c1)OCOc1ccccc1OCO2			inactive
Cc1ccnc2c1C(=O)C(=O)C=C2N1CCCCC1			inactive
CC1(C)O[C@@H]([C@@H](O)[C@H](O)C2SCCCS2)[C@@H](CO)O1	> 200	> 200	
CC(=O)C1=C(C)N2C(=NC3=C(CCc4ccccc43)C2c2ccc(Cl)cc2)S1 (stereo not drawn)	> 200	18.6	
CC1(c2nc3cc(Cl)c(Cl)cc3[nH]2)CCC(C(=O)O)C(C)(C)O1 (stereo not drawn)	> 200	> 200	
O=S(Nc1ccccc1)c1ccc(N2CCOCC2)cc1 (stereo not drawn)	> 200	18.2	
CC(=O)Nc1ccc(-c2nnc(SCC(=O)Nc3ccc(Cl)cc3)o2)cc1	> 89.1	5.01	
CCOC(=O)c1cc(-c2ccccc2)c(OC)c(=O)nc1-c1ccccc1	> 27.5	> 27.5	
Cn1cnc([N+](=O)[O-])c1Sc1nc2ccccc2o1	> 26.3	2.75	
C=CCC(C(=O)OC)C1(C(=O)OC)NCCc2c1[nH]c1ccccc21 (stereo not drawn)	> 324	178	
